From patent US20050209336A1, “EP2 receptor agonists” (priority 2003, published 2005) come the findings set out here.

Read-outs that look alike come from different tables or passages of the source.

The target of experiment [1] is T1, human EP2 receptor (Homo sapiens, UniProt P43116).
T1 construct: expressed in transfected cells; host or cells: HEK cells (HEK-EP2)
The experiment can be described thus: Radioligand ([3H]PGE2) competition displacement binding, human EP2 receptor membranes. As to conditions: human EP2 membranes, [3H]PGE2 displacement, Cheng-Prusoff; mean of 4 experiments; read-out: pKi EP2 (converted). The method, then: (§1) Membranes were prepared from cells stably transfected with human EP receptor cDNA. In brief, cells were cultured to confluency, scraped from culture flasks, and centrifuged (800 g, 8 minutes, 4° C.). Cells were twice washed in ice cold homogenisation buffer containing 10 mMTris-HCl, 1 mM EDTA.2Na, 250 mM sucrose, 1 mM PMSF, 0.3 mM indomethacin, pH 7.4, homogenised and re-centrifuged as before. The supernatant was stored on ice and pellets re-homogenised and re-spun. Supernatants were pooled and centrifuged at 40000 g, 10 minutes, 4° C. Resultant membrane pellets were stored at −80° C. until use.
(§2) For assay, membranes expressing human EP4, EP3, EP2 or EP1 receptors were incubated in Millipore (MHVBN45) plates containing assay buffer, radiolabelled [^3H]PGE2 and 0.1 to 10 000 nM concentrations of compounds. Incubations were performed at suitable temperatures and for suitable times to allow equilibrium to be reached. Non-specific binding was determined in the presence of 10 uM PGE2. Bound and free radiolabel was separated by vacuum manifold filtration using appropriate wash buffers, and bound radiolabel was determined by scintillation counting. Constituents of each of the buffers are included in table 4 below.
(§3) The affinity or pKi of each compound for each receptor was calculated from the concentration causing 50% radioligand displacement (IC50) using the Cheng-Prusoff equation: [formula]
(§4) This approach follows that set out in Kenakin, T. P., Pharmacologic analysis of drug receptor interaction. Raven Press, New York, 2nd edition.

Experiment [2] addresses T2, human EP3 receptor (Homo sapiens, UniProt P43115).
T2 construct: expressed in transfected cells
T2 sequence (P43115 1-390): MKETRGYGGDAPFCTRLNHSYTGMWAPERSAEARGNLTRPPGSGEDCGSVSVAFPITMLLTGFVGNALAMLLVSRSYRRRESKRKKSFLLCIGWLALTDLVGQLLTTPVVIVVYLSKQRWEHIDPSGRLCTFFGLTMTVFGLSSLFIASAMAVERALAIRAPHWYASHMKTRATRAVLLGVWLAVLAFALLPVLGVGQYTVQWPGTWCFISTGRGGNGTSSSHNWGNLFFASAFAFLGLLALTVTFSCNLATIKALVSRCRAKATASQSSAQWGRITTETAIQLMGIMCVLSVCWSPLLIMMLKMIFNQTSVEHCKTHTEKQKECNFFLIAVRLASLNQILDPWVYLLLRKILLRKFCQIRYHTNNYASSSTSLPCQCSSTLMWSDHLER
The experiment in a line: Radioligand ([3H]PGE2) competition displacement binding, human EP3 receptor membranes. Particulars: [3H]PGE2 displacement, read-out: pKi EP3 (converted). The method, then: as §1, §2, §3, §4

In experiment [3] the target is T3, human EP4 receptor (Homo sapiens, UniProt P35408).
T3 construct: expressed in transfected cells
T3 sequence (P35408 whole entry): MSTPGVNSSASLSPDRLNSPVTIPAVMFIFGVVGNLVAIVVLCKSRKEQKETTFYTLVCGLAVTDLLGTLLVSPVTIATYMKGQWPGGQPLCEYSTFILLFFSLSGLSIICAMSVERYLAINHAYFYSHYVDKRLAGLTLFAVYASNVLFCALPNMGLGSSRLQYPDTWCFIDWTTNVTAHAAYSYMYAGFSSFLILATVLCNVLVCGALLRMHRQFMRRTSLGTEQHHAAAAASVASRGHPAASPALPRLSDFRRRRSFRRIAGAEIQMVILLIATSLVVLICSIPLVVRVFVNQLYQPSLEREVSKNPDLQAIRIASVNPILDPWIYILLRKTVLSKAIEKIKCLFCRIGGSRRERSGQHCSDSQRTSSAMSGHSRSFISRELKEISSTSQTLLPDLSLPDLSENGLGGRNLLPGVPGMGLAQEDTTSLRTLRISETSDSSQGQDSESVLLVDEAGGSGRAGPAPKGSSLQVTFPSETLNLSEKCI
The experiment in a line: Radioligand ([3H]PGE2) competition displacement binding, human EP4 receptor membranes. Particulars: [3H]PGE2 displacement, read-out: pKi EP4 (converted). The method, then:
as §1, §2, §3, §4

For experiment [4], the target named is T1, human EP2 receptor. The experiment can be described thus: cAMP production in HEK cells stably expressing the human EP2 receptor. As to conditions: 15 min stimulation, 4 experiments, read-out: Mean EC50. The format is cell-based. Here is the method:
The following describes an in vitro assay to determine the effect of compounds on cyclase production, that is, to determine their functional efficacy at the EP2 receptor.
HEK cells stably expressing the human EP2 receptor were used for these assays. HEK-EP2 cells were cultured in 96-well, poly-L-lysine coated plates at a density of 50,000 cells/well, and grown to confluence in humidified […] at 37° C. Culture medium was DMEM supplemented with 10% foetal bovine serum, 100 U/ml penicillin, […], 2.5 µg/ml fungizone, 2 mM glutamine, 250 µg/ml geneticin and 200 µg/ml zeocin.
On reaching confluence, culture media was rinsed off using DMEM with no additions, before 175 µl assay buffer (DMEM containing 1 mM 3-isobutyl-1-methylxanthine and 3 µM indomethacin) was added to each well. This was allowed to incubate for 1 hr before the cells were stimulated with the test compounds (in triplicate) at final concentrations of 10^−9M to 10^−5M for 15 minutes. The assay was terminated by the addition of 25 µl 1M hydrochloric acid. Plates were then frozen for a minimum of 12 hours or until required for radioligand displacement assay.
Plates were thawed quickly at 37° C., and neutralised with 25 µl 1M sodium hydroxide. 30 µl of supernatant was transferred to 96-well Millipore (MAFNOB) plates coated with 0.1% Polyethylenimine. These supernatants were diluted by addition of 90[…]1 cAMP assay buffer (50 mM Tris, 5 mM EDTA, pH 7.0). A cAMP standard curve (10^−11M to 10^−5M) was constructed. 15 µl of 3′:5′-cAMP-dependent protein kinase (final concentration 8 µg/well), and 15 µl [^3H]-cAMP (final concentration 2 nM/well) were added to each well.
Plates were incubated on ice for 2 hours, before bound and free radiolabel were separated by vacuum filtration harvesting on the Millipore manifold, using ice cold water as the termination buffer. Filter plates were allowed to dry overnight, before addition of 50 µl Microscint. Radioactivity was determined using the Microbeta Trilux scintillation counter. cAMP accumulation was determined from the standard curve, and the values plotted as pmoles cAMP/well.

The test system of experiment [5] is IL-2 production by OKT3 activated T cells. The experiment can be described thus: Lymphocyte assay: IL-2 production by anti-CD3 (OKT3) stimulated T cells. It is filed as cell-based, human. Particulars: inhibition of IL-2 production, 24 h; for EC50: read-out: Mean EC50; for Mean Log (EC50): log scale. The text has this: (§5) Lymphocytes are mononuclear leukocytes, which participate in specific immune responses to foreign antigens and in the manifestation of auto-immune diseases. T lymphocytes produce IL-2, a key factor for lymphocyte activation and proliferation, in response to antigen stimulation via the CD3-T cell receptor complex and the pathway involved in this response is the NF-AT. […] A lymphocyte assay was designed to model this response and to determine the effect of test compound on IL-2 production by anti-CD3-stimulated T cells isolated from peripheral blood. This assay uses a sub-optimal dose of an anti-CD3 monoclonal antibody (OKT3, 25 ng/ml) immobilised to a 96-well plate to stimulate a T cell response. The level of IL-2 released into the cell culture supernatants was quantified using a standard sandwich ELISA. Similarly, other cytokines such as TNFα and IFN-γ can also be measured in the same assay.
(§6) Human peripheral blood mononuclear cells from healthy volunteers were isolated from whole blood by Ficoll-Hypaque density centrifugation and adherence to plastic. The non-adherent lymphocyte fraction was used to set up the lymphocyte assay and the adherent monocytes were then recovered by scraping and subsequently used in the monocyte assay.
(§7) Lymphocytes were then seeded to a 96-well plate pre-coated with anti-CD3 monoclonal antibody (OKT3) at 25 ng/ml and immediately, the test compounds (Peak 1, mixture 1 acid; Peak 1, mixture 2 acid; AH-13205 racemate; PGE2) in appropriate dilutions were added to corresponding wells according to the experimental design. The plate was incubated for 24 hours at 37° C. with 5% CO2 in air and supernatants were recovered for ELISA analysis at the end of incubation period. The levels of IFN-γ was assessed by using the ProteoPlex 16 well human cytokine array assay kit according to the manufacturer's instruction.

Experiment [6] has as its system TNFα production by lymphocytes. The experiment can be described thus: Lymphocyte assay: TNFα production. It is filed as cell-based, human. As to conditions: inhibition of TNFα production by lymphocytes, mean of three donors; for EC50: read-out: Mean EC50; for Mean Log (EC50): log scale.
From the text: as §5, §6, §7

The test system of experiment [7] is lymphocyte proliferation. The experiment can be described thus: Lymphocyte proliferation driven by immobilised anti-CD3 antibody. Particulars: inhibition of lymphocyte proliferation, 72 h, mean of three donors; for EC50: read-out: Mean EC50; for Mean Log (EC50): log scale. The format is cell-based, human.
From the text: as §5, §6
For the measurement of lymphocyte proliferation driven by immobilised anti-CD3 monoclonal antibody, the assay was set up in the same way as for the measurement of IL-2 release, except that the cells were cultured for 72 hours in the presence or absence of test compounds. Four hours prior to the termination of the proliferation assay, a novel tetrazolium compound solution supplied by Promega in the format of Cell Proliferation Assay Kit was added to individual wells according to the manufacturer's instruction. The plate was then placed back in the incubator for the remaining 4 hours and the […] reaction was measured using a spectrophotometer at an absorbent wavelength of 490 nm (SpectraMax, Molecular Devices) according to the manufacturer's instruction.

Experiment [8] deals with TNFα production by alveolar macrophages. The experiment in a line: Alveolar macrophage assay: LPS-induced TNFα release. Particulars: inhibition of TNFα production, LPS 1 μg/ml, 24 h, mean of three donors. The format is cell-based, human. Here is the method: Human lung parenchyma was cut into small pieces and perfused with ice-cold phosphate buffered saline (PBS) to remove contaminating blood and mucus. The tissues were then chopped with scissors in the presence of Minimum Essential Medium supplemented with penicillin, streptomycin, L-glutamine and DNase (0.25 mg/ml). The chopped tissues were shaken gently to dislodge the macrophages. A crude cell suspension was then obtained by the removal of the tissues with a sterile filter (150 μm pore size). The resulting cell suspension was spun and the cell pellet collected. Contaminating red blood cells were depleted with a red blood cell lysis buffer and the remaining cells washed twice with PBS by centrifugation. Alveolar macrophages were then purified from this cell preparation by using a positive selection method for CD14-molecule bearing cells using a VarioMac™ Separator and respective positive selection reagents and columns supplied by Miltenyi Biotec Ltd according to the manufacturer's instruction.
For the assay, alveolar macrophages were resuspended in complete culture medium consisting of RPMI1640 supplemented with 10% foetal calf serum, L-glutamine and antibiotics. The cells were then plated into 24 well plates (4×10^5 cell/well) and incubated overnight at 37° C. with 5% CO2 in air to allow cell adherence. The exhausted medium was then removed from the plates and the plates rinsed briefly with fresh medium before the addition of test compound solutions. The test compounds were incubated with the cells for 30 minutes before the addition of E. Coli LPS (1 μg/ml). The assay plates were incubated in a humidified incubator at 37° C. with 5% CO2 in air for 24 hours. The release of TNFα by the cells into the culture supernatants was quantified using an ELISA kit (DuoSet® human TNFα ELSIA Development System) supplied by R+D Systems (Europe) according to the manufacturer's instruction. Indomethacin at 3 μM was included in all treatments to inhibit the possible release of endogenous prostaglandin E2.

The test system of experiment [9] is human myometrial smooth muscle. The experiment can be described thus: Human myometrial activity: inhibition of electrical field stimulation (EFS) induced contractions. As to conditions: at 10^-4M, n=7 donors. It is filed as cell-based. Here is the method:
The following describes an in vitro functional assay, using human myometrial smooth muscle, to determine the affinity of the test compounds at the EP2 receptor in human tissues.
Sections of human myometrium were prepared from samples of surgically removed uterus longitudinal myometrial muscle strips (2 mm wide by 10 mm long) were then cut and suspended between stainless steel hooks in organ chambers containing oxygenated (95% O2/5% CO2) Krebs solution at 37° C. The composition of the Krebs solution was as follows: NaCl (118.2 mM), KCl (4.69 mM), MgSO4.7H2O (1.18 mM), KH2PO4 (1.19 mM), glucose (11.1 mM), NaHCO3 (25.0 mM), CaCl2.6H2O (2.5 mM), indomethacin 3×10^−6M.
Tissues were placed under a tension equivalent to 25 mN and left overnight at room temperature. The following day the tissues were maintained at 37° C., washed and placed under a tension of 15 mN then allowed to equilibrate for a period of at least 30 minutes. Responses were recorded using isometric transducers coupled to an Apple Macintosh computer via a MacLab interface. After 60 minutes, the muscle sections of the human myometrium were stimulated electrically (15 ms pulse width, for 10 s every 100 s at 15V and 0.5-40 Hz) using parallel platinum wire electrodes and a Multistim D330 pulse stimulator. Upon electrical stimulation, the strips of human myometrial smooth muscle responded with a rapid contraction. Once the response to electrical stimulation had stabilised (stimulated responses differed by no more than 10%), the strips were exposed to increasing concentrations of test compounds (1×10^−7 to 1×10^−4M, incubated for at least 15 minutes at each concentration). At the end of the experiment, application of sodium nitroprusside (SNP, a nitric oxide donor that causes smooth muscle relaxation) (1×10^−4M) was used to produce a standard relaxatory response. To determine the affinity of the compounds, the concentration of test compound required to produce half-maximal effects (EC50) was calculated, as was the maximum response (calculated as a percentage of the standard response produced with SNP).

The mark [10] stands for this setting: mean of four donors (FIG. 9, table 7).
[11] abbreviates: mean of three to five donors (FIG. 10, table 8).

T1 sequence (P43116 whole entry): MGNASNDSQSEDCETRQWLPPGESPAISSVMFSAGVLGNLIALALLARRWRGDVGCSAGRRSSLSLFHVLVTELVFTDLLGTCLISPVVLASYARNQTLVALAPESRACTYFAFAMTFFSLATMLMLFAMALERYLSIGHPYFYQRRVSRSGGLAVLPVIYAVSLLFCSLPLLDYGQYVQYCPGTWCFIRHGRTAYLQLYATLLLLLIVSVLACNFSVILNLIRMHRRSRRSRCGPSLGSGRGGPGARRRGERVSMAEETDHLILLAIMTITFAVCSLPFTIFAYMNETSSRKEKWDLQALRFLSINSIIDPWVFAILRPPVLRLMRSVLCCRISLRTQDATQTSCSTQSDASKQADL

Turning to `CCCCC[C@H](O)c1ccc([C@@H]2CCC(=O)[C@H]2CCCCCCC(=O)O)cc1` (single isomer, unassigned) [Peak 2, Mixture 1 acid], the Ki in experiment [1] was 1580 nM; in experiment [2], 15800 nM; in experiment [3], 31600 nM. Also, the EC50 in [4] turned out to be 323 nM.
In the case of `CCCCC[C@@H](O)c1ccc([C@@H]2CCC(=O)[C@H]2CCCCCCC(=O)O)cc1` (single isomer, unassigned) [Peak 2, Mixture 2 acid], the Ki in experiment [1] is 501 nM; in experiment [2], 20000 nM; in experiment [3], 15800 nM. Further, in [4], the EC50 amounted to 407 nM.
For the molecule `CCCCC[C@H](O)/C=C/[C@H]1[C@H](O)CC(=O)[C@@H]1C/C=C\CCCC(=O)O` [PGE2, prostaglandin E2], the EC50 in experiment [5] (setting [10]) came to 28 nM; in experiment [5] (setting [11]) it was 21.1 nM; in [6] it was 10.7 nM; in experiment [7] it was 25.8 nM; in [8] (read-out: Mean EC50) it was 125 nM. Also, the “Mean Log (EC50)” value is −7.554 in [5] (setting [10]); −7.677 in [5] (setting [11]); −7.971 in [6]; −7.589 in [7]; −6.904 in experiment [8] (log scale).
Turning to `CC(C)(C)NCC(O)c1cc(O)cc(O)c1` (stereo not shown) [terbutaline, reference compound], in experiment [9], the “% of the control EFS-induced contraction” value is on record as 98±5%.
butaprost: the EC50 in experiment [5] (setting [11]) turned out to be 124 nM; in [6], 292 nM; in experiment [7], 996 nM. Further, the entries for the “Mean Log (EC50)” value in experiment [5] (setting [11]), in experiment [6] and in [7] were −6.906, −6.535 and −6.015, respectively.
